Series [1] deals with T1, α1G T-type calcium channel (Homo sapiens, UniProt O43497).
T1 construct: host or cells: HEK293
The series can be described thus: Assay for % inhibiting activity against T-type calcium channel using FDSS6000 (fluo-3 calcium imaging, KCl activation). It is filed as cell-based. As to conditions: HEK293, 10 μM; HEK293 cells stably expressing α1G T-type calcium channel and Kir2.1; compounds of the examples; read-out: FDSS (% inhibition)/10uM. In short, it runs like this: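 Percent inhibition derived from […] area against untreated control (100%), after 75 s compound pre-exposure and 75 mM KCl activation. Cells: HEK293 with stable α1G plus Kir2.1, fluo-3/AM-labelled (5 μM), assayed in pH 7.4 HEPES containing 10 mM CaCl2.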

T1 sequence (O43497 whole entry): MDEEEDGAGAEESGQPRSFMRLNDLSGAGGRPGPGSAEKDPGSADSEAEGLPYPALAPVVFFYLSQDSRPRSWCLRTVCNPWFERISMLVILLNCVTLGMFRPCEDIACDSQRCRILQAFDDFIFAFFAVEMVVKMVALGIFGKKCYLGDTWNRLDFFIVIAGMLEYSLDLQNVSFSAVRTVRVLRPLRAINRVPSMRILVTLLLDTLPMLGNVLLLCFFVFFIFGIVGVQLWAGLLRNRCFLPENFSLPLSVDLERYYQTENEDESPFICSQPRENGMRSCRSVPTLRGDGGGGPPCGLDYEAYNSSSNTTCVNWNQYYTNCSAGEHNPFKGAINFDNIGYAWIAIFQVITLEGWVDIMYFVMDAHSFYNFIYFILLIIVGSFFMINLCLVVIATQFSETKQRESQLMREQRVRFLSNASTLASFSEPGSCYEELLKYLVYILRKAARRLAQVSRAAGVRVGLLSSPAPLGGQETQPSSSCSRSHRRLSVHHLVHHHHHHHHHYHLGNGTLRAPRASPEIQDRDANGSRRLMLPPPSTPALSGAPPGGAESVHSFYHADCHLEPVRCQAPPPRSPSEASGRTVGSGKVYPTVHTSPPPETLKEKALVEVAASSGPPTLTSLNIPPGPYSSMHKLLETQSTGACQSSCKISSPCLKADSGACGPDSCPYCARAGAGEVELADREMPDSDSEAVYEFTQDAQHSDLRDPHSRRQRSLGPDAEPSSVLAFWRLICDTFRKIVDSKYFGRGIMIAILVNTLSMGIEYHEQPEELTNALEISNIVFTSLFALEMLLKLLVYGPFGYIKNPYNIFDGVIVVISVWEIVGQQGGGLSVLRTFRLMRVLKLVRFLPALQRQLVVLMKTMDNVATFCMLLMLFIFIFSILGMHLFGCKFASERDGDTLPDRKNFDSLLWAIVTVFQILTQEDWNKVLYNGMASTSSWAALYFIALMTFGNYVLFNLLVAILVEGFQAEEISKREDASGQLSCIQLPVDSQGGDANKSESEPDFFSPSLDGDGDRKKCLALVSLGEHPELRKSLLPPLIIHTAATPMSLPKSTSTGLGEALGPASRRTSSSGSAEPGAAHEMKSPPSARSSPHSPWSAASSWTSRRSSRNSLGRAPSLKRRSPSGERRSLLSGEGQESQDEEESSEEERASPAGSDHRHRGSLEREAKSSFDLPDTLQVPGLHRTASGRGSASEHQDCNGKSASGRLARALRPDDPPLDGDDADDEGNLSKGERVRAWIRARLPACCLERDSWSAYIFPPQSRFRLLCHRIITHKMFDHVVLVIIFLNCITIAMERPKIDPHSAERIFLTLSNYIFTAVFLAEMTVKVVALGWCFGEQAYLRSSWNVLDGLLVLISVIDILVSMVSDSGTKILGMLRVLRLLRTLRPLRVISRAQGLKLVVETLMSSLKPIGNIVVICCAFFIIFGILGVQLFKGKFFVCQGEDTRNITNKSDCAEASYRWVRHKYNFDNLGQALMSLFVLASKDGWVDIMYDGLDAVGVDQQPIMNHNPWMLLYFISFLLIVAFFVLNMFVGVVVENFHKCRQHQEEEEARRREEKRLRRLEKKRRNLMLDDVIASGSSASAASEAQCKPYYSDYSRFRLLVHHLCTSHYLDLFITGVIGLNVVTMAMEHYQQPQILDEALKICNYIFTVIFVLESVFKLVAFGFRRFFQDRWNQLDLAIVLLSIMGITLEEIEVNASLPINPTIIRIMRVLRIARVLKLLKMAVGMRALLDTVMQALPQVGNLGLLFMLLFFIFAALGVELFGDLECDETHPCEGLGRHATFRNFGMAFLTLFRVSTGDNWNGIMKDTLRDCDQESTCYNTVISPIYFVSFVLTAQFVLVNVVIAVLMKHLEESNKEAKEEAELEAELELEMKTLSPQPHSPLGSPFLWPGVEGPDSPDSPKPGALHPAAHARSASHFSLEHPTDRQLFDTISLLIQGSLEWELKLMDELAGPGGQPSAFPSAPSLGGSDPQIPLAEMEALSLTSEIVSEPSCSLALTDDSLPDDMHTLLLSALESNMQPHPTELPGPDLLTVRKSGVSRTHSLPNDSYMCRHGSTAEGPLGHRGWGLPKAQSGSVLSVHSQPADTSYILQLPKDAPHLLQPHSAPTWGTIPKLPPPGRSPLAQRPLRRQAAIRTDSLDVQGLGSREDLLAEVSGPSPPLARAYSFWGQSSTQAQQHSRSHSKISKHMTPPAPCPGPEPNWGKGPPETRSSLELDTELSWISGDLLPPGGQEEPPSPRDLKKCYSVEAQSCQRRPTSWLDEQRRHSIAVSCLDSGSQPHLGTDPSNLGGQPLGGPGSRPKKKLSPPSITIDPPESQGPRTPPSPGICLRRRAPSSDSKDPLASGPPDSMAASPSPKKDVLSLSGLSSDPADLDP

As for `CCCCc1ccc(NC(=O)CC2CSC(=NC3CCCCC3)N2C2CC2)cc1.Cl` (stereo not drawn) [KHG24270, [2-cyclohexylimino-3-cyclopropyl-1,3-thiazolidine-4-yl]-N-(4-n-butylphenyl)-acetamide hydrochloride], the melting point (in general, the temperature of the solid-liquid transition) was determined as 195.6 °C. Besides, the inhibition at 10 µM in series [1] stood at 62.6%.
On the same counts, the results for `Cl.O=C(CC1CSC(=NC2CCCCC2)N1C1CC1)Nc1cc(Cl)ccc1F` (stereo not drawn) [KHG24271, [2-cyclohexylimino-3-cyclopropyl-1,3-thiazolidine-4-yl]-N-(5-chloro-2-fluorophenyl)-acetamide hydrochloride] are 183.7 °C and 37.8%.
The matching figures for `CCc1ccc(NC(=O)CC2CSC(=NC3CCCCC3)N2C2CC2)cc1.Cl` (stereo not drawn) [KHG24272, [2-cyclohexylimino-3-cyclopropyl-1,3-thiazolidine-4-yl]-N-(4-ethylphenyl)-acetamide hydrochloride]: 194.2 °C and 37.6%.
Compound `Cl.O=C(CC1CSC(=NC2CCCCC2)N1C1CC1)Nc1ccc(Br)cc1` (stereo not drawn) [KHG24273, [2-cyclohexylimino-3-cyclopropyl-1,3-thiazolidine-4-yl]-N-(4-bromophenyl)-acetamide hydrochloride] returned a melting point of 188.9 °C. In series [1], the inhibition at 10 µM was 48.5%.
On the same counts, the results for `CCN1C(=NC2CCCCC2)SCC1CC(=O)Nc1ccc(Oc2ccccc2)cc1.Cl` (stereo not drawn) [KHG24276, [2-cyclohexylimino-3-ethyl-1,3-thiazolidine-4-yl]-N-(4-phenoxyphenyl)-acetamide hydrochloride] are 160.3 °C and 42.8%.
`CCCCc1ccc(NC(=O)CC2CSC(=NC3CCCCC3)N2CC)cc1.Cl` (stereo not drawn) [KHG24277, [2-cyclohexylimino-3-ethyl-1,3-thiazolidine-4-yl]-N-(4-n-butylphenyl)-acetamide hydrochloride] showed a melting point of 158.4 °C. Moreover, the inhibition at 10 µM in series [1] was determined as 61.1%.
The matching figures for `CCN1C(=NC2CCCCC2)SCC1CC(=O)Nc1cc([N+](=O)[O-])ccc1F.Cl` (stereo not drawn) [KHG24278, [2-cyclohexylimino-3-ethyl-1,3-thiazolidine-4-yl]-N-(2-fluoro-5-nitrophenyl)-acetamide hydrochloride]: 177 °C and 53.8%.
As to `CCN1C(=NC2CCCCC2)SCC1CC(=O)Nc1ccc(C)cc1.Cl` (stereo not drawn) [KHG24279, [2-cyclohexylimino-3-ethyl-1,3-thiazolidine-4-yl]-N-(4-methylphenyl)-acetamide hydrochloride], the melting point amounted to 211.9 °C. For the same compound, the inhibition at 10 µM in series [1] is 44.1%.
The matching figures for `CCN1C(=NC2CCCCC2)SCC1CC(=O)Nc1ccc(C(F)(F)F)cc1.Cl` (stereo not drawn) [KHG24280, [2-cyclohexylimino-3-ethyl-1,3-thiazolidine-4-yl]-N-(4-trifluoromethylphenyl)-acetamide hydrochloride]: 191 °C and 54%.
On the same counts, the results for `CCCCN1C(=NC2CCCCC2)SCC1CC(=O)Nc1ccc(Oc2ccccc2)cc1.Cl` (stereo not drawn) [KHG24281, [2-cyclohexylimino-3-(n-butyl)-1,3-thiazolidine-4-yl]-N-(4-phenoxyphenyl)-acetamide hydrochloride] are 213.3 °C and 31.4%.
Regarding `CCCCc1ccc(NC(=O)CC2CSC(=NC3CCCCC3)N2CCCC)cc1.Cl` (stereo not drawn) [KHG24282, [2-cyclohexylimino-3-(n-butyl)-1,3-thiazolidine-4-yl]-N-(4-n-butylphenyl)-acetamide hydrochloride], the melting point worked out at 209.1 °C. Besides, the inhibition at 10 µM in series [1] was 43.6%.
Compound `CCCCN1C(=NC2CCCCC2)SCC1CC(=O)Nc1ccc(C(C)C)cc1.Cl` (stereo not drawn) [KHG24283, [2-cyclohexylimino-3-(n-butyl)-1,3-thiazolidine-4-yl]-N-(4-isopropylphenyl)-acetamide hydrochloride] came in with a melting point of 215.6 °C. In series [1], the inhibition at 10 µM amounted to 51.2%.
`CCCCN1C(=NC2CCCCC2)SCC1CC(=O)Nc1ccc(F)cc1.Cl` (stereo not drawn) [KHG24284, [2-cyclohexylimino-3-(n-butyl)-1,3-thiazolidine-4-yl]-N-(4-fluorophenyl)-acetamide hydrochloride] displayed a melting point of 203.5 °C. For the same compound, the inhibition at 10 µM in series [1] came out at 44.6%.
On the same counts, the results for `CCCCN1C(=NC2CCCCC2)SCC1CC(=O)Nc1ccc(C)cc1.Cl` (stereo not drawn) [KHG24285, [2-cyclohexylimino-3-(n-butyl)-1,3-thiazolidine-4-yl]-N-(4-methylphenyl)-acetamide hydrochloride] are 183.4 °C and 46%.
The matching figures for `CCCCN1C(=NC2CCCCC2)SCC1CC(=O)Nc1ccc(CC)cc1.Cl` (stereo not drawn) [KHG24286, [2-cyclohexylimino-3-(n-butyl)-1,3-thiazolidine-4-yl]-N-(4-ethylphenyl)-acetamide hydrochloride]: 221.2 °C and 55.2%.
The matching figures for `CCCN1C(=NC2CCCCC2)SCC1CC(=O)Nc1ccc(Cl)cc1.Cl` (stereo not drawn) [KHG24287, [2-cyclohexylimino-3-(n-propyl)-1,3-thiazolidine-4-yl]-N-(4-chlorophenyl)-acetamide hydrochloride]: 206.8 °C and 58.5%.
Take `CCCN1C(=NC2CCCCC2)SCC1CC(=O)Nc1ccc(Br)cc1.Cl` (stereo not drawn) [KHG24288, [2-cyclohexylimino-3-(n-propyl)-1,3-thiazolidine-4-yl]-N-(4-bromophenyl)-acetamide hydrochloride]: the melting point is 219.1 °C. Further, the inhibition at 10 µM in series [1] was 55%.
As to `CCCN1C(=NC2CCCCC2)SCC1CC(=O)Nc1ccc(Oc2ccccc2)cc1.Cl` (stereo not drawn) [KHG24290, [2-cyclohexylimino-3-(n-propyl)-1,3-thiazolidine-4-yl]-N-(4-phenoxyphenyl)-acetamide hydrochloride], the melting point was 230.3 °C. In series [1], the inhibition at 10 µM came to 62.2%.
The matching figures for `CCCCc1ccc(NC(=O)CC2CSC(=NC3CCCCC3)N2CCC)cc1.Cl` (stereo not drawn) [KHG24291, [2-cyclohexylimino-3-(n-propyl)-1,3-thiazolidine-4-yl]-N-(4-n-butylphenyl)-acetamide hydrochloride]: 201.4 °C and 63.2%.
The matching figures for `CCN1C(=NC2CCCCC2)SCC1CC(=O)NCc1ccc(C)cc1.Cl` (stereo not drawn) [KHG24292, (2-cyclohexylimino-3-ethyl-1,3-thiazolidine-4-yl)-N-(4-methylbenzyl)-acetamide hydrochloride]: 172.6 °C and 43.9%.
The matching figures for `CCCN1C(=NC2CCCCC2)SCC1CC(=O)NCc1ccc(C)cc1.Cl` (stereo not drawn) [KHG24293, [2-cyclohexylimino-3-(n-propyl)-1,3-thiazolidine-4-yl]-N-(4-methylbenzyl)-acetamide hydrochloride]: 189.5 to 191.2 °C and 55.8%.
Compound `CCCN1C(=NC2CCCCC2)SCC1CC(=O)Nc1ccc(C(C)C)cc1.Cl` (stereo not drawn) [KHG24294, [2-cyclohexylimino-3-(n-propyl)-1,3-thiazolidine-4-yl]-N-(4-isopropylphenyl)-acetamide hydrochloride] came in with a melting point of 207 °C. Further, the inhibition at 10 µM in series [1] was determined as 65.7%.
For `CCCN1C(=NC2CCCCC2)SCC1CC(=O)Nc1cc([N+](=O)[O-])ccc1F.Cl` (stereo not drawn) [KHG24295, [2-cyclohexylimino-3-(n-propyl)-1,3-thiazolidine-4-yl]-N-(2-fluoro-5-nitrophenyl)-acetamide hydrochloride], the melting point worked out at 139.2 °C. Moreover, the inhibition at 10 µM in series [1] was 36.2%.
On the same counts, the results for `CCCN1C(=NC2CCCCC2)SCC1CC(=O)Nc1ccc(F)cc1.Cl` (stereo not drawn) [KHG24296, [2-cyclohexylimino-3-(n-propyl)-1,3-thiazolidine-4-yl]-N-(4-fluorophenyl)-acetamide hydrochloride] are 169.7 °C and 53.1%.
Take `CCCN1C(=NC2CCCCC2)SCC1CC(=O)Nc1ccc(C)cc1.Cl` (stereo not drawn) [KHG24297, [2-cyclohexylimino-3-(n-propyl)-1,3-thiazolidine-4-yl]-N-(4-methylphenyl)-acetamide hydrochloride]: the melting point was 188.9 °C. In series [1], the inhibition at 10 µM is 51%.
The matching figures for `CCCN1C(=NC2CCCCC2)SCC1CC(=O)Nc1ccc(CC)cc1.Cl` (stereo not drawn) [KHG24298, [2-cyclohexylimino-3-(n-propyl)-1,3-thiazolidine-4-yl]-N-(4-ethylphenyl)-acetamide hydrochloride]: 221.4 °C and 60.4%.
The matching figures for `Cl.O=C(CC1CSC(=NC2CCCCC2)N1Cc1ccccc1)Nc1ccc(Cl)cc1` (stereo not drawn) [KHG24299, (2-cyclohexylimino-3-benzyl-1,3-thiazolidine-4-yl)-N-(4-chlorophenyl)-acetamide hydrochloride]: 199 °C and 45.6%.
For the compound `Cl.O=C(CC1CSC(=NC2CCCCC2)N1Cc1ccccc1)Nc1ccc(Br)cc1` (stereo not drawn) [KHG24300, (2-cyclohexylimino-3-benzyl-1,3-thiazolidine-4-yl)-N-(4-bromophenyl)-acetamide hydrochloride], the melting point stood at 181.4 °C. The inhibition at 10 µM in series [1] is 36.7%.
Compound `CC(C)c1ccc(NC(=O)CC2CSC(=NC3CCCCC3)N2Cc2ccccc2)cc1.Cl` (stereo not drawn) [KHG24303, (2-cyclohexylimino-3-benzyl-1,3-thiazolidine-4-yl)-N-(4-isopropylphenyl)-acetamide hydrochloride] gave a melting point of 202.9 °C. Moreover, in series [1], the inhibition at 10 µM came to 31.1%.
On the same counts, the results for `Cl.O=C(CC1CSC(=NC2CCCCC2)N1Cc1ccccc1)Nc1ccc(F)cc1` (stereo not drawn) [KHG24305, (2-cyclohexylimino-3-benzyl-1,3-thiazolidine-4-yl)-N-(4-fluorophenyl)-acetamide hydrochloride] are 214.1 °C and 58.9%.
